SMILES strings stand for the structures.

Sequence of human 11βHSD1 enzyme (P28845 whole entry): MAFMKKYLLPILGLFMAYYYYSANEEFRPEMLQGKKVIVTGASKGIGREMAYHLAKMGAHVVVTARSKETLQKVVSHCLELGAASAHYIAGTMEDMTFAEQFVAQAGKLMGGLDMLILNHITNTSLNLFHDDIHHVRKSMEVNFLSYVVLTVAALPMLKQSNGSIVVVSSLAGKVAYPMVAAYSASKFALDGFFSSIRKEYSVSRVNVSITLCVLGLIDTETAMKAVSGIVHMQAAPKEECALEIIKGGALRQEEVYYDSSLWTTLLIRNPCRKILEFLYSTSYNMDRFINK

The test addresses human 11βHSD1 enzyme (Homo sapiens (Human), UniProt P28845). As to the kind of experiment: biochemical. Particulars: read-out: % inhibition of human 11-βHSD.
Description: The evaluation of compounds described herein was carried out using a baculovirus expressed N terminal 6-His tagged full length human 11βHSD1 enzyme(*1). […] Inhibitors of 11βHSD1 reduce the conversion of cortisone to cortisol, which is identified by an increase in signal, in the above assay.
Compounds to be tested were dissolved in dimethyl sulphoxide (DMSO) to 10 mM and diluted further in assay buffer containing 1% DMSO to 10 fold the final assay concentration. Diluted compounds were then plated into black 384 well plates (Matrix, Hudson N.H., USA).
The assay plates were incubated for 25 minutes at 37° C. after which time the reaction was stopped by the addition of 10 μl of 0.5 mM glycerrhetinic acid plus conjugated cortisol (XL665 or D2). 10 μl of anti-cortisol Cryptate was then added and the plates sealed and incubated for 6 hours at room temperature.
Usually inhibition stands for the drop in the measured response relative to a control, in per cent. As for `CCCSc1nc(N2CCCC(CC(=O)O)C2)ccc1C(=O)NC1CCCCC1` (stereo not drawn) [Example 5, 2-[1-[5-(cyclohexylcarbamoyl)-6-propylsulfanyl-pyridin-2-yl]-3-piperidyl]acetic acid], the inhibition at 30 µM came to 86%.

With `CCCSc1nc(N2CCN(CC(=O)O)CC2)ccc1C(=O)NC1CCCCC1` [Example 8, 2-[4-[5-(cyclohexylcarbamoyl)-6-propylsulfanyl-pyridin-2-yl]piperazin-1-yl]acetic acid], the inhibition at 30 µM is 78%.

Turning to `CCCSc1nc(N[C@H]2C3CC4CC2C[C@](C(=O)O)(C4)C3)ccc1C(=O)NC1CCCCC1` [Example 9, (3R,5S)-4-[[5-(cyclohexylcarbamoyl)-6-propylsulfanyl-pyridin-2-yl]amino]adamantane-1-carboxylic acid], the inhibition at 30 µM was 92%.

Regarding `CCCSc1nc(N[C@H]2C3CC4CC2C[C@@](C(=O)O)(C4)C3)ccc1C(=O)NC1CCCCC1` [Example 10, (3R,5S)-4-[[5-(cyclohexylcarbamoyl)-6-propylsulfanyl-pyridin-2-yl]amino]adamantane-1-carboxylic acid], the inhibition at 30 µM was found to be 88%.

Consider `CCCSc1nc(N(C)[C@H]2CC[C@H](C(=O)O)CC2)ccc1C(=O)NC1CCCCC1` [Example 11, 4-[[5-(cyclohexylcarbamoyl)-6-propylsulfanyl-pyridin-2-yl]-methyl-amino]cyclohexane-1-carboxylic acid], for which the inhibition at 30 µM turned out to be 83%.

In the case of `CCCSc1nc(Oc2cccc(C(=O)O)c2)ccc1C(=O)NC1CCCCC1` [Example 13, 3-[5-(cyclohexylcarbamoyl)-6-propylsulfanyl-pyridin-2-yl]oxybenzoic acid], the inhibition at 30 µM amounted to 94%.

Consider `CCCSc1nc(Sc2cccc(C(=O)O)c2)ccc1C(=O)NC1CCCCC1` [Example 14, 3-[5-(cyclohexylcarbamoyl)-6-propylsulfanyl-pyridin2-yl]sulfanylbenzoic acid], for which the inhibition at 30 µM was found to be 78%.

For the molecule `CCCSc1nc(Sc2ccc(C(=O)O)cc2)ccc1C(=O)NC1CCCCC1` [Example 15, 4-[5-(cyclohexylcarbamoyl)-6-propylsulfanyl-pyridin-2-yl]sulfanylbenzoic acid], the inhibition at 30 µM is 73%.

As to `CCCSc1nc(Oc2ccc(C(=O)O)cc2)ccc1C(=O)NC1CCCCC1` [Example 16, 4-[5-(cyclohexylcarbamoyl)-6-propylsulfanyl-pyridin-2-yl]oxybenzoic acid], the inhibition at 30 µM was 43%.

Take `CCCSc1nc(Oc2ccc(CCC(=O)O)cc2)ccc1C(=O)NC1CCCCC1` [Example 18, 3-[4-[5-(cyclohexylcarbamoyl)-6-propylsulfanyl-pyridin-2-yl]oxyphenyl]propanoic acid]: the inhibition at 30 µM is 81%.

For `CCCSc1nc(Sc2ccc(OCC(=O)O)cc2)ccc1C(=O)NC1CCCCC1` [Example 19, 2-[4-[5-(cyclohexylcarbamoyl)-6-propylsulfanyl-pyridin-2-yl]sulfanylphenoxy]acetic acid], the inhibition at 30 µM was determined as 61%.

Turning to `CCCSc1nc(Oc2ccc(OCC(=O)O)cc2)ccc1C(=O)NC1CCCCC1` [Example 20, 2-[4-[5-(cyclohexylcarbamoyl)-6-propylsulfanyl-pyridin-2-yl]oxyphenoxy]acetic acid], the inhibition at 30 µM stood at 89%.

As to `CCCSc1nc(Oc2ccc(C(C)C(=O)O)cc2)ccc1C(=O)NC1CCCCC1` (stereo not drawn) [Example 21, 2-[4-[5-(cyclohexylcarbamoyl)-6-propylsulfanyl-pyridin-2-yl]oxyphenyl]propanoic acid], the inhibition at 30 µM was determined as 88%.

For `CCCSc1nc(Sc2ccc(CC(=O)O)cc2)ccc1C(=O)NC1CCCCC1` [Example 22, 2-[4-[5-(cyclohexylcarbamoyl)-6-propylsulfanyl-pyridin-2-yl]sulfanylphenyl]acetic acid], the inhibition at 30 µM stood at 65%.

Regarding `CCCSc1nc(Oc2cccc(CC(=O)O)c2)ccc1C(=O)NC1CCCCC1` [Example 23, 2-[3-[5-(cyclohexylcarbamoyl)-6-propylsulfanyl-pyridin-2-yl]oxyphenyl]acetic acid], the inhibition at 30 µM is 78%.

Turning to `CCCSc1nc(Sc2ccccc2C(=O)O)ccc1C(=O)NC1CCCCC1` [Example 24, 2-[5-(cyclohexylcarbamoyl)-6-propylsulfanyl-pyridin-2-yl]sulfanylbenzoic acid], the inhibition at 30 µM is 77%.

Regarding `CCCSc1nc(N2CCC[C@H]2C(=O)O)ccc1C(=O)NC1CCCCC1` [Example 27, (2S)-1-[5-(cyclohexylcarbamoyl)-6-propylsulfanyl-pyridin-2-yl]pyrrolidine-2-carboxylic acid], the inhibition at 30 µM worked out at 94%.

Regarding `CCCSc1nc(N2CCC(C(C)C(=O)O)CC2)ccc1C(=O)NC1CCCCC1` (stereo not drawn) [Example 28, 2-[1-[5-(cyclohexylcarbamoyl)-6-propylsulfanyl-pyridin-2-yl]-4-piperidyl]propanoic acid], the inhibition at 30 µM came to 86%.

As to `CCCSc1nc(N2CCCC(C(=O)O)CC2)ccc1C(=O)NC1CCCCC1` (stereo not drawn) [Example 31, 1-[5-(cyclohexylcarbamoyl)-6-propylsulfanyl-pyridin-2-yl]azepane-4-carboxylic acid], the inhibition at 30 µM was 94%.

`CCCSc1nc(N2CCC(C)(C(=O)O)CC2)ccc1C(=O)NC1CCCCC1` [Example 32, 1-[5-(cyclohexylcarbamoyl)-6-propylsulfanyl-pyridin-2-yl]-4-methyl-piperidine-4-carboxylic acid]: the inhibition at 30 µM was 89%.

With `CCCSc1nc(N2CCC(C(=O)O)(C(C)C)CC2)ccc1C(=O)NC1CCCCC1` [Example 35, 4-[5-(cyclohexylcarbamoyl)-6-propylsulfanyl-pyridin-2-yl]-4-propan-2-yl-piperidine-4-carboxylic acid], the inhibition at 30 µM came to 93%.

Regarding `CCCSc1nc(N2CCC(C(=O)O)C(C)C2)ccc1C(=O)NC1CCCCC1` (stereo not drawn) [Example 36], the inhibition at 30 µM was found to be 89%.

As to `CCCSc1nc(N2CCCC(CCC(=O)O)C2)ccc1C(=O)NC1CCCCC1` (stereo not drawn) [Example 39, 3-[1-[5-(cyclohexylcarbamoyl)-6-propylsulfanyl-pyridin-2-yl]-3-piperidyl]propanoic acid], the inhibition at 30 µM amounted to 74%.

Consider `CCCSc1nc(N2CC(OCC(=O)O)C2)ccc1C(=O)NC1CCCCC1` [Example 40, 2-[1-[5-(cyclohexylcarbamoyl)-6-propylsulfanyl-pyridin-2-yl]azetidin-3-yl]oxyacetic acid], for which the inhibition at 30 µM stood at 87%.

On to `CCCSc1nc(N2CCCC(C3(C(=O)O)CCC3)C2)ccc1C(=O)NC1CCCCC1` (stereo not drawn) [Example 41, 1-[1-[5-(cyclohexylcarbamoyl)-6-propylsulfanyl-pyridin-2-yl]-3-piperidyl]cyclobutane-1-carboxylic acid], for which the inhibition at 30 µM worked out at 82%.

On to `CCCSc1nc(N2CCC(OCC(=O)O)C2)ccc1C(=O)NC1CCCCC1` (stereo not drawn) [Example 43, 2-[1-[5-(cyclohexylcarbamoyl)-6-propylsulfanyl-pyridin-2-yl]pyrrolidin-3-yl]oxyacetic acid], for which the inhibition at 30 µM amounted to 92%.

As for `CCCSc1nc(N2CCCC(OC(C)C(=O)O)C2)ccc1C(=O)NC1CCCCC1` (stereo not drawn) [Example 44], the inhibition at 30 µM was 85%.

With `CCCSc1nc(N2CCCC(OC(C)(C)C(=O)O)C2)ccc1C(=O)NC1CCCCC1` (stereo not drawn) [Example 45], the inhibition at 30 µM was 85%.

For the molecule `CCCSc1nc(N2CCCC(OCC(=O)O)C2)ccc1C(=O)NC1CCCCC1` (stereo not drawn) [Example 46], the inhibition at 30 µM was 83%.

For the molecule `CCCSc1nc(N2CCCC(C)(C(=O)O)C2)ccc1C(=O)NC1CCCCC1` (stereo not drawn) [Example 47, 1-[5-(cyclohexylcarbamoyl)-6-propylsulfanyl-pyridin-2-yl]-3-methyl-piperidine-3-carboxylic acid], the inhibition at 30 µM was 90%.

`CCCSc1nc(N2CCC(C(C)(C)C(=O)O)CC2)ccc1C(=O)NC1CCCCC1` [Example 48, 2-[1-[5-(cyclohexylcarbamoyl)-6-propylsulfanyl-pyridin-2-yl]-4-piperidyl]-2-methyl-propanoic acid]: the inhibition at 30 µM was found to be 75%.

For the molecule `CCCSc1nc(N2CCC(C3(C(=O)O)CCC3)CC2)ccc1C(=O)NC1CCCCC1` [Example 49, 1-[1-[5-(cyclohexylcarbamoyl)-6-propylsulfanyl-pyridin-2-yl]-4-piperidyl]cyclobutane-1-carboxylic acid], the inhibition at 30 µM stood at 77%.

Regarding `CCCSc1nc(N2CCC(C3(C(=O)O)CC3)CC2)ccc1C(=O)NC1CCCCC1` [Example 50, 1-[1-[5-(cyclohexylcarbamoyl)-6-propylsulfanyl-pyridin-2-yl]-4-piperidyl]cyclopropane-1-carboxylic acid], the inhibition at 30 µM was 81%.

In the case of `CCCSc1nc(N2CCOC(C(=O)O)C2)ccc1C(=O)NC1CCCCC1` (stereo not drawn) [Example 51, 4-[5-(cyclohexylcarbamoyl)-6-propylsulfanyl-pyridin-2-yl]morpholine-2-carboxylic acid], the inhibition at 30 µM stood at 90%.

Regarding `O=C(O)C[C@@H]1CCCN(c2ccc(C(=O)NC3CCCCC3)c(SC3CCCC3)n2)C1` [Example 52, 2-[(3S)-1-[5-(cyclohexylcarbamoyl)-6-cyclopentylsulfanyl-pyridin-2-yl]-3-piperidyl]acetic acid], the inhibition at 30 µM worked out at 92%.

Consider `O=C(O)C[C@H]1CCCN(c2ccc(C(=O)NC3CCCCC3)c(SC3CCCC3)n2)C1` [Example 55, 2-[(3R)-1-[5-(cyclohexylcarbamoyl)-6-cyclopentylsulfanyl-pyridin-2-yl]-3-piperidyl]acetic acid], for which the inhibition at 30 µM was found to be 89%.

With `O=C(NC1CCCCC1)c1ccc(N2CCCC(C3(C(=O)O)CC3)C2)nc1SC1CCCC1` (stereo not drawn) [Example 56, 1-[1-[5-(cyclohexylcarbamoyl)-6-cyclopentylsulfanyl-pyridin-2-yl]-3-piperidyl]cyclopropane-1-carboxylic acid], the inhibition at 30 µM was 97%.

As to `O=C(O)C[C@H]1CCN(c2ccc(C(=O)NC3CCCCC3)c(SC3CCCCC3)n2)C1` [Example 57, 2-[(3R)-1-[5-(cyclohexylcarbamoyl)-6-cyclohexylsulfanyl-pyridin-2-yl]pyrrolidin-3-yl]acetic acid], the inhibition at 30 µM amounted to 97%.

With `O=C(O)C[C@H]1CCCN(c2ccc(C(=O)NC3CCCCC3)c(SC3CCCCC3)n2)C1` [Example 58, 2-[(3R)-1-[5-(cyclohexylcarbamoyl)-6-cyclohexylsulfanyl-pyridin-2-yl]-3-piperidyl]acetic acid], the inhibition at 30 µM was found to be 83%.

The values are drawn from patent US8673938B2, “Chemical compounds” (priority 2006, dated 2014).
